Data from US8871756B2 (Hoffmann-La Roche Inc., priority 2011, dated 2014).

What follows are compounds tested on RSV Long strain (assay: Viral cytopathic effect (CPE) assay, anti-RSV activity). Conditions: human respiratory syncytial virus, 144 h, RSV Long strain (ATCC); cell viability after 6 days, Cell Counting kit-8.
Type: cell-based, Respiratory Syncytial Virus
Method: Viral cytopathic effect (CPE) assay: To measure anti-RSV activity of compounds, 96-well plates are seeded with 6×10^3 cells per well in Dulbecco's modified Eagle's medium (DMEM) containing 10% fetal bovine serum (FBS). Cells are infected the next day with sufficient RSV Long strain (ATCC) to produce an approximately 80-90% cytopathic effect after 6 days, in the presence of serial half-log diluted compound in a total volume of 200 μL per well. The viability of cells is assessed after 6 days using Cell Counting kit-8 (Dojindo Molecular Technologies). The absorbance at 450 nm and referenced at 630 nm is measured to determine 50% effective concentration (EC50).
The compounds of the present invention were tested for their anti-RSV activity, and the activation as described herein. The Examples were tested in the above assay and found to have EC50 of about 0.0001 μM to about 10 μM.

Which EC50 does the source give for `Cc1cccc2c(NCCCCCCCCCCN)cc(N3CCS(=O)(=O)c4ccccc4C3)nc12` [Example 12-4, N-[2-(1,1-Dioxido-2,3-dihydro-1,4-benzothiazepin-4(5H)-yl)-8-methylquinolin-4-yl]decane-1,10-diamine] here?
The EC50 was 0.764 µM.

How did the EC50 turn out when `Cc1ccc2nc(N3CCS(=O)(=O)c4ccccc4C3)cc(N3CC[C@H](O)C3)c2c1` [Example 15-3, (3S)-1-[2-(1,1-Dioxido-2,3-dihydro-1,4-benzothiazepin-4(5H)-yl)-6-methylquinolin-4-yl]pyrrolidin-3-ol] was run?
The EC50 was 2.7 µM.

`NCC1(CNc2nc(N3CCS(=O)(=O)c4ccccc4C3)nc3ccc(C(=O)O)cc23)COC1` [Example 108-2, 4-({[3-(Aminomethyl)oxetan-3-yl]methyl}amino)-2-(1,1-dioxido-2,3-dihydro-1,4-benzothiazepin-4(5H)-yl)quinazoline-6-carboxylic acid] was tested. Which EC50 did it give?
Its EC50 is 2.47 µM.

With `Cc1ccc2nc(N3CCC(F)(F)c4ccccc4C3)cc(NCCCCN)c2c1` [Example 111-10, N-[2-(5,5-Difluoro-1,3,4,5-tetrahydro-2H-2-benzazepin-2-yl)-6-methylquinolin-4-yl]butane-1,4-diamine] as the compound, how does the EC50 read?
Its EC50 is 0.107 µM.

For `CCNC(=O)Nc1cc(N2CCS(=O)(=O)c3ccccc3C2)nc2ccc(C)cc12` [Example 50-2, 1-[2-(1,1-Dioxido-2,3-dihydro-1,4-benzothiazepin-4(5H)-yl)-6-methylquinolin-4-yl]-3-ethylurea], which EC50 is on record?
Its EC50 is 2.42 µM.

For `Cc1ccc2nc(N3CCC(F)(F)c4ccccc4C3)cc(NC3CCCC(N)C3)c2c1` (stereo not shown) [Example 111-7, N-[2-(5,5-Difluoro-1,3,4,5-tetrahydro-2H-2-benzazepin-2-yl)-6-methylquinolin-4-yl]cyclohexane-1,3-diamine], which EC50 is on record?
Its EC50 is 0.873 µM.

For `Cc1ccc2nc(N3CC[S+]([O-])c4ccccc4C3)nc(NCCN)c2c1` (stereo not shown) [Example 89, N-[6-Methyl-2-(1-oxido-2,3-dihydro-1,4-benzothiazepin-4(5H)-yl)quinazolin-4-yl]ethane-1,2-diamine], which EC50 is on record?
The EC50 was 0.007 µM.

Which EC50 does the source give for `Cc1ccc2nc(N3CCS(=O)(=O)c4ccccc4C3)cc(CCCN)c2c1` [Example 96, 3-[2-(1,1-Dioxido-2,3-dihydro-1,4-benzothiazepin-4(5H)-yl)-6-methylquinolin-4-yl]propan-1-amine] here?
Its EC50 is 2.83 µM.

For `Cc1ccc2nc(N3Cc4ccccc4S(=O)(=O)C(C)C3)cc(NCCN)c2c1` (stereo not shown) [Example 69-1, N-[6-Methyl-2-(2-methyl-1,1-dioxido-2,3-dihydro-1,4-benzothiazepin-4(5H)-yl)quinolin-4-yl]ethane-1,2-diamine], which EC50 is on record?
Its EC50 is 0.007 µM.

For `NCCNc1cc(N2CCCc3cccc(F)c3C2)nc2ccc(Cl)cc12` [Example 118-6, N-[6-Chloro-2-(9-fluoro-1,3,4,5-tetrahydro-2H-2-benzazepin-2-yl)quinolin-4-yl]ethane-1,2-diamine], which EC50 is on record?
The EC50 was 0.173 µM.

`Cc1ccc2nc(N3CCS(=O)(=O)c4ccccc4C3)cc(NCCCCCCN)c2c1` [Example 3-56, N-[2-(1,1-Dioxido-2,3-dihydro-1,4-benzothiazepin-4(5H)-yl)-6-methylquinolin-4-yl]hexane-1,6-diamine] was tested. Which EC50 did it give?
Its EC50 is 0.716 µM.

`Cc1ccc2nc(N3CCS(=O)(=O)c4ccccc4C3)cc(NCC(F)CN)c2c1` (stereo not shown) [Example 3-21, N-[2-(1,1-Dioxido-2,3-dihydro-1,4-benzothiazepin-4(5H)-yl)-6-methylquinolin-4-yl]-2-fluoropropane-1,3-diamine] was tested. Which EC50 did it give?
The EC50 was 0.006 µM.

For `Cc1ccc2nc(N3CCS(=O)(=O)c4ccccc4C3)cc(NC3CNCC3F)c2c1` (stereo not drawn) [Example 28-1, 2-(1,1-Dioxido-2,3-dihydro-1,4-benzothiazepin-4(5H)-yl)-N-trans-(4-fluoropyrrolidin-3-yl)-6-methylquinolin-4-amine], which EC50 is on record?
Its EC50 is 0.007 µM.

`O=S1(=O)CCN(c2cc(NC3CNC3)c3cc(Cl)ccc3n2)Cc2ccccc21` [Example 22, N-(Azetidin-3-yl)-6-chloro-2-(1,1-dioxido-2,3-dihydro-1,4-benzothiazepin-4(5H)-yl)quinolin-4-amine] was tested. Which EC50 did it give?
The EC50 was 0.036 µM.

Which EC50 does the source give for `Cc1cccc2c(NCCCCCCCCCN)cc(N3CCS(=O)(=O)c4ccccc4C3)nc12` [Example 12-3, N-[2-(1,1-Dioxido-2,3-dihydro-1,4-benzothiazepin-4(5H)-yl)-8-methylquinolin-4-yl]nonane-1,9-diamine] here?
The EC50 was 6.26 µM.

Which EC50 does the source give for `Cc1ccc2nc(N3CCS(=O)(=O)c4ccccc4C3)cc(NCC(C)N)c2c1` (stereo not shown) [Example 5-5, N˜1˜-[2-(1,1-Dioxido-2,3-dihydro-1,4-benzothiazepin-4(5H)-yl)-6-methylquinolin-4-yl]propane-1,2-diamine] here?
Its EC50 is 0.014 µM.

For `COC(=O)c1ccc2nc(N3CCS(=O)(=O)c4ccccc4C3)cc(NCC3(CN)COC3)c2c1` [Example 104, Methyl 4-({[3-(aminomethyl)oxetan-3-yl]methyl}amino)-2-(1,1-dioxido-2,3-dihydro-1,4-benzothiazepin-4(5H)-yl)quinoline-6-carboxylate], which EC50 is on record?
Its EC50 is 0.89 µM.

With `Cc1ccc2nc(N3CCS(=O)(=O)c4ccccc4C3)nc(NC3CNC3)c2c1` [Example 93-2, N-(Azetidin-3-yl)-6-methyl-2-(1,1-dioxido-2,3-dihydro-1,4-benzothiazepin-4(5H)-yl)quinazolin-4-amine] as the compound, how does the EC50 read?
The EC50 was 0.009 µM.

With `Cc1ccc2nc(N3CCS(=O)(=O)c4ccccc4C3)cc(NCC(O)CO)c2c1` (stereo not shown) [Example 32-1, 3-{[2-(1,1-Dioxido-2,3-dihydro-1,4-benzothiazepin-4(5H)-yl)-6-methylquinolin-4-yl]amino}propane-1,2-diol] as the compound, how does the EC50 read?
The EC50 was 0.019 µM.

Which EC50 does the source give for `Cc1ccc2nc(N3CCC(F)(F)c4ccccc4C3)cc(NCCS(=O)(=O)CCN)c2c1` [Example 113, N-{2-[(2-Aminoethyl)sulfonyl]ethyl}-2-(5,5-difluoro-1,3,4,5-tetrahydro-2H-2-benzazepin-2-yl)-6-methylquinolin-4-amine] here?
The EC50 was 0.733 µM.

For `NCCNc1cc(N2CCCc3ccccc3C2)nc2ccc(C(F)(F)F)cc12` [Example 118-19, N-[2-(1,3,4,5-Tetrahydro-2H-2-benzazepin-2-yl)-6-(trifluoromethyl)quinolin-4-yl]ethane-1,2-diamine], which EC50 is on record?
Its EC50 is 1.24 µM.

`Cc1ccc2nc(N3CCS(=N)(=O)c4ccccc4C3)cc(NCCN)c2c1` (stereo not shown) [Example 76, N-[2-(1-Imino-1-oxido-1,2,3,5-tetrahydro-4H-1lambda˜4˜,4-benzothiazepin-4-yl)-6-methylquinolin-4-yl]ethane-1,2-diamine] was tested. Which EC50 did it give?
Its EC50 is 0.006 µM.

For `NCCNc1cc(N2CCCc3c(Cl)cccc3C2)nc2ccccc12` [Example 118-12, N-[2-(6-Chloro-1,3,4,5-tetrahydro-2H-2-benzazepin-2-yl)quinolin-4-yl]ethane-1,2-diamine], which EC50 is on record?
Its EC50 is 0.448 µM.

With `CCOc1ccc2c(c1)CN(c1cc(NCCN)c3ccccc3n1)CCC2` [Example 121, N-[2-(8-Ethoxy-1,3,4,5-tetrahydro-2H-2-benzazepin-2-yl)quinolin-4-yl]ethane-1,2-diamine] as the compound, how does the EC50 read?
Its EC50 is 1.1 µM.

With `Cc1ccc2nc(N3CCS(=O)(=O)c4ccccc4C3)cc(NC[C@@H](N)CO)c2c1` [Example 37-2, (2R)-2-Amino-3-{[2-(1,1-dioxido-2,3-dihydro-1,4-benzothiazepin-4(5H)-yl)-6-methylquinolin-4-yl]amino}propan-1-ol] as the compound, how does the EC50 read?
Its EC50 is 0.043 µM.

With `Cc1ccc2nc(N3CCS(=O)(=O)c4ccccc4C3)cc(NC3CCCC(N)C3)c2c1` (stereo not shown) [Example 3-16, N-[2-(1,1-Dioxido-2,3-dihydro-1,4-benzothiazepin-4(5H)-yl)-6-methylquinolin-4-yl]-cyclohexane-1,3-diamine] as the compound, how does the EC50 read?
The EC50 was 0.075 µM.

For `Cc1ccc2nc(N3CCS(=O)(=O)c4ccccc4C3)cc(N3CCCNCC3)c2c1` [Example 3-36, 4-[4-(1,4-Diazepan-1-yl)-6-methylquinolin-2-yl]-2,3,4,5-tetrahydro-1,4-benzothiazepine 1,1-dioxide], which EC50 is on record?
Its EC50 is 0.092 µM.

Which EC50 does the source give for `Cc1ccc2nc(N3CCS(=O)(=O)c4cc(F)ccc4C3)cc(NCC3(N)COC3)c2c1` [Example 1-2, N-[(3-Aminooxetan-3-yl)methyl]-2-(8-fluoro-1,1-dioxido-2,3-dihydro-1,4-benzothiazepin-4(5H)-yl)-6-methylquinolin-4-amine] here?
The EC50 was 0.007 µM.

For `Cc1ccc2nc(N3CCSc4ccccc4C3)cc(N3CCC(N)C3)c2c1` (stereo not shown) [Example 4-4, 1-[2-(2,3-Dihydro-1,4-benzothiazepin-4(5H)-yl)-6-methylquinolin-4-yl]pyrrolidin-3-amine], which EC50 is on record?
Its EC50 is 0.208 µM.

`Cc1ccc2nc(N3CCC(F)(F)c4ccccc4C3)cc(NCC3(N)COC3)c2c1` [Example 110-1, N-[(3-Aminooxetan-3-yl)methyl]-2-(5,5-difluoro-1,3,4,5-tetrahydro-2H-2-benzazepin-2-yl)-6-methylquinolin-4-amine] was tested. Which EC50 did it give?
Its EC50 is 0.017 µM.

How did the EC50 turn out when `Cc1ccc2nc(N3CCS(=O)(=O)c4ccccc4C3)nc(NCC3(N)CC3)c2c1` [Example 135-1, N-[(1-Aminocyclopropyl)methyl]-2-(1,1-dioxido-2,3-dihydro-1,4-benzothiazepin-4(5H)-yl)-6-methylquinazolin-4-amine] was run?
The EC50 was 0.006 µM.

How did the EC50 turn out when `Cc1ccc2nc(N3CCS(=O)(=O)c4ccccc4C3)cc(N3C[C@H](O)[C@@H](O)C3)c2c1` [Example 3-34, (3S,4S)-1-[2-(1,1-Dioxido-2,3-dihydro-1,4-benzothiazepin-4(5H)-yl)-6-methylquinolin-4-yl]pyrrolidine-3,4-diol] was run?
Its EC50 is 0.085 µM.

Which EC50 does the source give for `Cc1ccc2nc(N3CCS(=O)(=O)c4ccccc4C3)cc(NCC3CN=C(N)O3)c2c1` (stereo not shown) [Example 38-1, N-[(2-Amino-4,5-dihydro-1,3-oxazol-5-yl)methyl]-2-(1,1-dioxido-2,3-dihydro-1,4-benzothiazepin-4(5H)-yl)-6-methylquinolin-4-amine] here?
Its EC50 is 0.01 µM.

With `Nc1cc(N2CCS(=O)(=O)c3cc(OCCCO)ccc3C2)nc2ccccc12` [Example 34, 3-{[4-(4-Aminoquinolin-2-yl)-1,1-dioxido-2,3,4,5-tetrahydro-1,4-benzothiazepin-8-yl]oxy}propan-1-ol] as the compound, how does the EC50 read?
Its EC50 is 2.09 µM.
